Test results from US20240041877A1, “DOSAGE REGIME AND METHOD FOR TREATING PULMONARY ARTERIAL HYPERTENSION” (Altavant Sciences GmbH, priority 2019, published 2024).

What was measured:
clinical = conditions: human, plasma, oral, 100 mg
[1] = Cardiac conduction (QTcF) in healthy adult subjects; format: in vivo, human
[2] = Study KAR5585-101 Part 1 (SAD): plasma pharmacokinetics after a single oral dose of KAR5585, fasting and fed (incl. dose proportionality and food effect); conditions: for half-life / AUC(0-t) / AUC / AUC(0-inf) / concentration at 12 h / Cmax / Tmax: human, po; for AUC: AUC0-tau; for AUC(0-inf): AUC0-∞; for Tmax: Median
[3] = 100 mg to 700 mg dose (7-fold increase in dose), fasting
[4] = 400 mg KAR5585, Cohort 3B (test) vs 3A (reference)
[5] = 400 mg KAR5585 single dose, Cohorts 3B vs 3A
[6] = 700 mg to 2000 mg (2.86-fold increase in dose), fasting
[7] = 100 to 2000 mg KAR5585 single oral dose, fasting, plasma analyte = label
[8] = KAR5417 after 100 mg KAR5585 single oral, fasted, Cohort 1, Geo. Mean
[9] = KAR5417 after 100 mg KAR5585 single oral, fasted, Cohort 1, Mean
[10] = KAR5417 after 200 mg KAR5585 single oral, fasted, Cohort 2, Geo. Mean
[11] = KAR5417 after 200 mg KAR5585 single oral, fasted, Cohort 2, Mean
[12] = KAR5417 after 400 mg KAR5585 single oral, fasted, Cohort 3A, Geo. Mean
[13] = KAR5417 after 400 mg KAR5585 single oral, fasted, Cohort 3A, Mean
[14] = KAR5417 after 400 mg KAR5585 single oral, fed, Cohort 3B, Geo. Mean
[15] = KAR5417 after 400 mg KAR5585 single oral, fed, Cohort 3B, Mean
[16] = KAR5417 after 700 mg KAR5585 single oral, fasted, Cohort 4, Geo. Mean
[17] = KAR5417 after 700 mg KAR5585 single oral, fasted, Cohort 4, Mean
[18] = KAR5417 after 1200 mg KAR5585 single oral, fasted, Cohort 5, Geo. Mean
[19] = KAR5417 after 1200 mg KAR5585 single oral, fasted, Cohort 5, Mean
[20] = KAR5417 after 2000 mg KAR5585 single oral, fasted, Cohort 6, Geo. Mean
[21] = KAR5417 after 2000 mg KAR5585 single oral, fasted, Cohort 6, Mean
[22] = plasma, 100 mg, KAR5417 after 100 mg KAR5585 single oral, fasted, Cohort 1, Geo. Mean
[23] = plasma, 100 mg, KAR5417 after 100 mg KAR5585 single oral, fasted, Cohort 1, Mean
[24] = plasma, 200 mg, KAR5417 after 200 mg KAR5585 single oral, fasted, Cohort 2, Geo. Mean
[25] = plasma, 200 mg, KAR5417 after 200 mg KAR5585 single oral, fasted, Cohort 2, Mean

Structure (SMILES): Nc1nc(O[C@H](c2ccc(Cl)cc2-c2ccccc2)C(F)(F)F)cc(N2CCC3(CC2)CN[C@H](C(=O)O)C3)n1 [KAR5417, (S)-8-(2-amino-6-((R)-1-(5-chloro-[1,1T-biphenyl]-2-yl)-2,2,2-trifluoroeth-oxy)pyrimidin-4-yl)-2,8-diazaspiro[4.5]decane-3-carboxylic acid]
- Cmax at 1 day (clinical): 121 ng/mL
- Cmax at 14 day (clinical): 194 ng/mL
- tendency to increase QTcF in a dose-dependent manner [1]: Neither the prodrug (KAR5585) nor the active drug (KAR5417) showed any tendency to increase QTcF in a dose-dependent manner
- fold increase in mean AUC0-24 [2, 3]: 6.3 fold
- fold increase in mean AUC0-inf [2, 3]: 6.8 fold
- fold increase in mean Cmax [2, 3]: 7.27 fold
- AUC0-inf, Geometric LS Mean Ratio (fed/fasting) [2, 4]: 2.02
- AUC0-tau, Geometric LS Mean Ratio (fed/fasting) [2, 4]: 2.04
- exposure as assessed by AUC0-tau and AUC0-inf, fed relative to fasting ([2]; 400 mg KAR5585 single dose): approximately 2 fold
- fold increase in Cmax, fed vs fasting [2, 5]: 1.8 fold
- fold increase in mean AUC0-inf, fed vs fasting [2, 5]: 1.8 fold
- peak mean concentration under fed relative to fasting conditions, % higher [2, 5]: approximately 177%
- fold increase in AUC0-24 [2, 6]: 1.7 fold
- fold increase in AUC0-inf [2, 6]: 1.81 fold
- fold increase in Cmax [2, 6]: 1.38 fold
- Dose proportionality power model, AUC0-12: Intercept estimate [2, 7]: 14.5
- Dose proportionality power model, AUC0-inf: Intercept estimate [2, 7]: 12.3
- Dose proportionality power model, AUC0-tau: Intercept estimate [2, 7]: 6.54
- Dose proportionality power model, Cmax: Intercept estimate [2, 7]: 1.95
- AUC0-24/D [2, 8]: 8.16 (hr*ng/mL)/mg
- Cmax/D [2, 8]: 0.931 (ng/ml)/mg
- AUC0-24/D [2, 9]: 8.47 (hr*ng/mL)/mg
- Cmax/D [2, 9]: 1.07 (ng/ml)/mg
- t1/2 [2, 9]: 4.67 h
- AUC0-24/D [2, 10]: 4.70 (hr*ng/mL)/mg
- Cmax/D [2, 10]: 0.658 (ng/ml)/mg
- AUC0-24/D [2, 11]: 5.81 (hr*ng/mL)/mg
- Cmax/D [2, 11]: 0.801 (ng/ml)/mg
- AUC0-24/D [2, 12]: 7.43 (hr*ng/mL)/mg
- Cmax/D [2, 12]: 1.11 (ng/ml)/mg
- AUC0-24/D [2, 13]: 8.12 (hr*ng/mL)/mg
- Cmax/D [2, 13]: 1.21 (ng/ml)/mg
- AUC0-24/D [2, 14]: 13.4 (hr*ng/mL)/mg
- Cmax/D [2, 14]: 2.08 (ng/ml)/mg
- AUC0-24/D [2, 15]: 13.6 (hr*ng/mL)/mg
- Cmax/D [2, 15]: 2.15 (ng/ml)/mg
- AUC0-24/D [2, 16]: 5.31 (hr*ng/mL)/mg
- Cmax/D [2, 16]: 0.777 (ng/ml)/mg
- AUC0-24/D [2, 17]: 7.58 (hr*ng/mL)/mg
- Cmax/D [2, 17]: 1.11 (ng/ml)/mg
- AUC0-24/D [2, 18]: 4.84 (hr*ng/mL)/mg
- Cmax/D [2, 18]: 0.636 (ng/ml)/mg
- AUC0-24/D [2, 19]: 5.66 (hr*ng/mL)/mg
- Cmax/D [2, 19]: 0.747 (ng/ml)/mg
- AUC0-24/D [2, 20]: 4.26 (hr*ng/mL)/mg
- Cmax/D [2, 20]: 0.515 (ng/ml)/mg
- AUC0-24/D [2, 21]: 4.54 (hr*ng/mL)/mg
- Cmax/D [2, 21]: 0.542 (ng/ml)/mg
- half-life ([2]; in vivo, 700 mg): 12.1 h
- AUC(0-t) ([2]; plasma, 100 mg, AUC0-12, KAR5417 after 100 mg KAR5585 single oral, fasted, Cohort 1, Geo. Mean): 686 ng·h/mL
- AUC(0-t) ([2]; plasma, 100 mg, AUC0-12, KAR5417 after 100 mg KAR5585 single oral, fasted, Cohort 1, Mean): 704 ng·h/mL
- AUC(0-t) ([2]; plasma, 100 mg, AUC0-24, KAR5417 after 100 mg KAR5585 single oral, fasted, Cohort 1, Geo. Mean): 816 ng·h/mL
- AUC(0-t) ([2]; plasma, 100 mg, AUC0-24, KAR5417 after 100 mg KAR5585 single oral, fasted, Cohort 1, Mean): 847 ng·h/mL
- AUC [2, 22]: 605 ng·h/mL
- AUC [2, 23]: 718 ng·h/mL
- AUC(0-inf) [2, 22]: 847 ng·h/mL
- AUC(0-inf) [2, 23]: 886 ng·h/mL
- concentration at 12 h ([2]; plasma, 100 mg, C12, KAR5417 after 100 mg KAR5585 single oral, fasted, Cohort 1, Geo. Mean): 22.5 ng/mL
- concentration at 12 h ([2]; plasma, 100 mg, C12, KAR5417 after 100 mg KAR5585 single oral, fasted, Cohort 1, Mean): 23.8 ng/mL
- Cmax [2, 22]: 93.1 ng/mL
- Cmax [2, 23]: 107 ng/mL
- AUC(0-t) ([2]; plasma, 100 mg, Plasma AUC0-96, KAR5417 in plasma, 100 mg KAR5585 single oral dose, mean): 889 ng·h/mL
- half-life ([2]; plasma, 100 mg, t1/2, KAR5417 after 100 mg KAR5585 single oral, fasted, Cohort 1, Geo. Mean): 4.51 h
- half-life ([2]; plasma, 100 mg, t1/2, KAR5417 after 100 mg KAR5585 single oral, fasted, Cohort 1, Mean): 4.7 h
- Tmax ([2]; plasma, 100 mg, KAR5417 after 100 mg KAR5585 single oral, fasted, Cohort 1): 4 h
- AUC(0-t) ([2]; plasma, 200 mg, AUC0-12, KAR5417 after 200 mg KAR5585 single oral, fasted, Cohort 2, Geo. Mean): 771 ng·h/mL
- AUC(0-t) ([2]; plasma, 200 mg, AUC0-12, KAR5417 after 200 mg KAR5585 single oral, fasted, Cohort 2, Mean): 947 ng·h/mL
- AUC(0-t) ([2]; plasma, 200 mg, AUC0-24, KAR5417 after 200 mg KAR5585 single oral, fasted, Cohort 2, Geo. Mean): 940 ng·h/mL
- AUC(0-t) ([2]; plasma, 200 mg, AUC0-24, KAR5417 after 200 mg KAR5585 single oral, fasted, Cohort 2, Mean): 1160 ng·h/mL
- AUC [2, 24]: 866 ng·h/mL
- AUC [2, 25]: 1120 ng·h/mL
- AUC(0-inf) [2, 24]: 988 ng·h/mL
- AUC(0-inf) [2, 25]: 1230 ng·h/mL
- concentration at 12 h ([2]; plasma, 200 mg, C12, KAR5417 after 200 mg KAR5585 single oral, fasted, Cohort 2, Geo. Mean): 27.3 ng/mL
- concentration at 12 h ([2]; plasma, 200 mg, C12, KAR5417 after 200 mg KAR5585 single oral, fasted, Cohort 2, Mean): 32.9 ng/mL
- Cmax [2, 24]: 132 ng/mL
- Cmax [2, 25]: 160 ng/mL
- AUC(0-t) ([2]; plasma, 200 mg, Plasma AUC0-96, KAR5417 in plasma, 200 mg KAR5585 single oral dose, mean): 1240 ng·h/mL
- half-life ([2]; plasma, 200 mg, t1/2, KAR5417 after 200 mg KAR5585 single oral, fasted, Cohort 2, Geo. Mean): 5.29 h
- half-life ([2]; plasma, 200 mg, t1/2, KAR5417 after 200 mg KAR5585 single oral, fasted, Cohort 2, Mean): 5.4 h
- Tmax ([2]; plasma, 200 mg, KAR5417 after 200 mg KAR5585 single oral, fasted, Cohort 2): 3 h
- AUC(0-t) ([2]; plasma, 400 mg, AUC0-12, KAR5417 after 400 mg KAR5585 single oral, fasted, Cohort 3A, Geo. Mean): 2460 ng·h/mL
- AUC(0-t) ([2]; plasma, 400 mg, AUC0-12, KAR5417 after 400 mg KAR5585 single oral, fasted, Cohort 3A, Mean): 2690 ng·h/mL
- AUC(0-t) ([2]; plasma, 400 mg, AUC0-12, KAR5417 after 400 mg KAR5585 single oral, fed, Cohort 3B, Geo. Mean): 4170 ng·h/mL
- AUC(0-t) ([2]; plasma, 400 mg, AUC0-12, KAR5417 after 400 mg KAR5585 single oral, fed, Cohort 3B, Mean): 4240 ng·h/mL
- AUC(0-t) ([2]; plasma, 400 mg, AUC0-24, KAR5417 after 400 mg KAR5585 single oral, fasted, Cohort 3A, Geo. Mean): 2970 ng·h/mL
- AUC(0-t) ([2]; plasma, 400 mg, AUC0-24, KAR5417 after 400 mg KAR5585 single oral, fasted, Cohort 3A, Mean): 3250 ng·h/mL
- AUC(0-t) ([2]; plasma, 400 mg, AUC0-24, KAR5417 after 400 mg KAR5585 single oral, fed, Cohort 3B, Geo. Mean): 5370 ng·h/mL
